From patent US4298739A, “Novel carbostyril derivatives” (priority 1977, dated 1981)

What was measured:
rabbit platelet [1] = experiment: Collagen-induced aggregation in rabbit platelets (AG-II Aggregometer); format: cell-based; set-up: inhibition: dose or concentration left out as unconfirmed; details: Oryctolagus cuniculus, Platelet, read-out: Inhibition effect on collagen induced aggregation in rabbit platelet; for inhibition at 10 µM (stock): 10^-5 mole; for inhibition at 1 µM (stock): 10^-6 mole; for inhibition at 100 µM (stock): 10^-4 mole; for inhibition at 0.1 µM (stock): 10^-7 mole
Description: (§1) The platelet aggregation inhibitory effect is measured by using AG-II Aggregometer (manufactured by Bryston Manufacturing Co.). The blood sample used for the test is a 1/9 (by volume) mixture of sodium citrate and whole blood collected from rabbit. Said sample is subjected to 10-minute centrifugal separation at 1,000 r.p.m. to obtain a platelet rich plasma (PRP). The thus obtained PRP is separated, and the remaining blood sample is further subjected to 15-minute centrifugal separation at 3,000 r.p.m. to obtain a platelet poor plasma (PPP).
(§2) The number of platelets in the PRP is counted by the Brecher-Clonkite Method, and the PRP is diluted with the PPP to prepare a PRP sample with platelet concentration of 300,000/mm^3 for the adenosine diphosphate (ADP)-induced aggregation test. There is also prepared a PRP sample with platelet concentration of 450,000/mm^3 for the collagen-induced aggregation test.
(§3) 0.6 ml of said PRP sample is added into 0.01 ml of a solution of a test compound of a predetermined concentration and the mixture is placed in a 37° C. thermostat for one minute. Then 0.07 ml of an ADP or collagen solution is added to the mixture. Transmittance of this mixture is determined and the change of transmittance is recorded by using the aggregometer at stirrer speed of 1,100 r.p.m. In this test, Auren Beronal buffer (pH 7.35) is used for the preparation of the ADP or collagen solution. ADP is adjusted to a concentration of 7.5×10^-5 M, and the collagen solution is prepared by triturating 100 mg of collagen with 5 ml of said buffer and the supernatant is used as collagen inducer. Adenosine and acetylsalicylic acid are used as controls for the ADP-induced aggregation test and the collagen-induced aggregation test, respectively. The platelet aggregation inhibitory effect is measured in terms of percent inhibition with respect to the aggregation rate of the controls. The aggregation rate is calculated from the following formula:
(§4) Aggregation rate=(c-a)/(b-a)×100
(§5) b: transmittance of PRP containing a test compound and an aggregation inducer
(§6) The inhibitory effect of the tested compounds on collagen-induced aggregation in rabbit platelets is shown in Table 1, and such effect on ADP-induced aggregation is shown in Table 2. The compounds tested are as follows.

[2] = Acute toxicity test, oral administration to mice; format: in vivo; details: mouse, in vivo, Male mice
Description: The test compounds were administered orally to the mice and LD50 (mg/kg) of the compounds was determined.

rabbit platelet [3] = experiment: ADP-induced aggregation in rabbit platelets (AG-II Aggregometer); format: cell-based; set-up: inhibition: dose or concentration left out as unconfirmed; details: Oryctolagus cuniculus, Platelet, read-out: Inhibition effect on ADP-induced aggregation in rabbit platelet; for inhibition at 10 µM (stock): 10^-5 mole; for inhibition at 1 µM (stock): 10^-6 mole; for inhibition at 100 µM (stock): 10^-4 mole
Description: as §1, §2, §3, §4, §5, §6

Row | Compound | inhibition at 10 µM (stock) (rabbit platelet [1]) [%] | inhibition at 1 µM (stock) (rabbit platelet [1]) [%] | LD50 [2] [mg/kg] | inhibition at 10 µM (stock) (rabbit platelet [3]) [%] | inhibition at 1 µM (stock) (rabbit platelet [3]) [%] | inhibition at 100 µM (stock) (rabbit platelet [1]) [%] | inhibition at 100 µM (stock) (rabbit platelet [3]) [%] | other results
1 | CN(C(=O)CCCOc1ccc2[nH]c(=O)ccc2c1)C1CCC(O)CC1 (centres unmarked) [compound 2, 6-{3-[N-Methyl-N-(4-hydroxycyclohexyl)aminocarbonyl]propoxy}carbostyril] | 100 | 89.7 | > 1000 | 90.3 | 54.3 |  |  | 
2 | COc1ccc(CCN(C)C(=O)CCCOc2ccc3[nH]c(=O)ccc3c2)cc1OC [compound 4, 6-{3-[N-Methyl-N-(2-3',4'-dimethoxyphenylethyl)aminocarbonyl]propoxy}carbostyril] | 46.5 | 19.2 | > 1000 | 16.1 | 6.9 | 82.9 | 70.4 | 
3 | O=C(CCCOc1ccc2[nH]c(=O)ccc2c1)N(Cc1ccccc1)C1CCCCC1 [compound 5, 6-{3-(N-Cyclohexyl-N-benzylaminocarbonyl)propoxy]carbostyril] | 91.8 | 88.4 | > 1000 | 90.7 | 61.2 |  |  | inhibition at 0.1 µM (stock) (rabbit platelet [1]): 30.6%; inhibition at 0.1 µM (stock) (rabbit platelet [3]; 10^-7 mole): 18.9%
4 | CN(C(=O)CCCOc1ccc2[nH]c(=O)ccc2c1Cl)C1CCCCC1 [compound 6, 5-Chloro-6-[3-(N-methyl-N-cyclohexylaminocarbonyl)propoxy]carbostyril] | 53.3 | 12.3 | > 1000 | 5.4 |  | 100 | 87.2 | 
5 | O=C1CCc2cc(OCCCC(=O)N(C3CCCCC3)C3CCCCC3Cl)ccc2N1 (centres unmarked) [compound 7, 6-{3-[N-Cyclohexyl-N-(2-chlorocyclohexyl)aminocarbonyl]propoxy}-3,4-dihydrocarbostyril] |  |  | > 1000 |  |  |  |  | inhibition (rabbit platelet [1]): 89.9%; inhibition (rabbit platelet [3]): 82.9%
6 | CN(C(=O)CC(O)COc1ccc2[nH]c(=O)ccc2c1)C1CCCCC1 (centres unmarked) [compound 8, 6-[2-Hydroxy-3-(N-methyl-N-cyclohexylaminocarbonyl)propoxy]carbostyril] | 86.8 | 2.9 | > 1000 | 41.1 |  | 85.5 | 91.7 | 
7 | CC(COc1ccc2[nH]c(=O)ccc2c1)CC(=O)N(C)C1CCCCC1 (centres unmarked) [compound 9, 6-[3-(N-Methyl-N-cyclohexylaminocarbonyl)-2-methylpropoxy]carbostyril] | 100 | 100 | > 1000 | 70.4 | 5.8 | 100 | 92.8 | inhibition at 0.1 µM (stock) (rabbit platelet [1]): 11.2%
8 | CN(C(=O)CCCOc1ccc(O)c2c1CCC(=O)N2)C1CCCCC1 [compound 10, 8-Hydroxy-5-[3-(N-Methyl-N-cyclohexylaminocarbonyl)propoxy]-3,4-dihydrocarbostyril] | 29.3 |  | > 1000 | 18.4 |  | 91.8 | 53.9 | 
9 | COc1ccc(CCN(Cc2ccccc2)C(=O)CCCOc2ccc3c(c2)CCC(=O)N3)cc1OC [compound 11, 6-{3-[N-Benzyl-N-(2-3',4'-dimethoxyphenylethyl)aminocarbonyl]propoxy}-3,4-dihydrocarbostyril] | 75.8 | 28.1 | > 1000 | 12.5 | 16.9 | 88.1 | 87.5 | 
10 | CCN(C(=O)CCCOc1c(Cl)cc(Cl)c2c1CCC(=O)N2)c1ccccc1 [compound 12, 6,8-Dichloro-5-[3-(N-ethylanilinocarbonyl)propoxy]-3,4-dihydrocarbostyril] | 65.2 | 33.8 | > 1000 | 33.8 | 12.7 | 82.6 | 71.7 | 
11 | O=C(CCCOc1ccc2[nH]c(=O)ccc2c1)NC1CCCCC1 [compound 13, 6-[3-(N-Cyclohexylaminocarbonyl)propoxy]carbostyril] | 45.8 | 23.3 | > 1000 | 24.8 | 18 | 87.5 | 39.6 | 
12 | C=CCN(C(=O)CCCOc1ccc2c(c1)CCC(=O)N2)C1CCCCC1 [compound 14, 6-[3-(N-Allyl-N-cyclohexylaminocarbonyl)propoxy]-3,4-dihydrocarbostyril] | 42.3 | 15.7 | > 1000 | 25.7 | 15.1 | 82.4 | 41.3 | 
13 | CCOC(=O)C(C)Oc1ccc2c(c1)CCC(=O)N2 (centres unmarked) [compound 25, 6-(1-Ethoxycarbonylethoxy)-3,4-dihydrocarbostyril, reference compound] |  |  | > 1000 |  |  |  |  | 
14 | CCOC(=O)C(C)Oc1ccc2[nH]c(=O)ccc2c1 (centres unmarked) [compound 26, 6-(1-Ethoxycarbonylethoxy)carostyril, reference compound] |  |  | > 1000 |  |  |  |  | 
15 | CCOC(=O)C(C)Oc1ccc2c(c1)CCC(=O)N2C (centres unmarked) [compound 27, 1-Methyl-6-(1-ethoxycarbonylethoxy)-3,4-dihydrocarbostyril, reference compound] |  |  | 800 to 1000 |  |  |  |  | 
16 | CCOC(=O)C(C)Oc1ccc2c(c1)NC(=O)CC2 (centres unmarked) [compound 28, 7-(1-ethoxycarbonylethoxy)-3,4-dihydrocarbostyril, reference compound] |  |  | > 1000 |  |  |  |  | 
17 | CCCCCOC(=O)C(C)Oc1ccc2c(c1)CCC(=O)N2 (centres unmarked) [compound 30, 6-(1-Amyloxycarbonylethoxy)-3,4-dihydrocarbostyril, reference compound] |  |  | > 1000 |  |  |  |  | 
18 | CC(C)OC(=O)C(C)Oc1ccc2[nH]c(=O)ccc2c1 (centres unmarked) [compound 31, 6-(1-Isopropoxycarbonylethoxy)carbostyril, reference compound] |  |  | 900 to 1000 |  |  |  |  | 
19 | CCOC(=O)CCCOc1cccc2c1CCC(=O)N2 [compound 32, 5-(3-Ethoxycarbonylpropoxy)-3,4-dihydrocarbostyril, reference compound] |  |  | > 1000 |  |  |  |  | 
20 | CCCCCOC(=O)CCCOc1ccc2c(c1)CCC(=O)N2 [compound 33, 6-(3-Amyloxycarbonylpropoxy)-3,4-dihydrocarbostyril, reference compound] |  |  | > 1000 |  |  |  |  | 
21 | CCOC(=O)CCCCCCOc1ccc2c(c1)CCC(=O)N2 [compound 35, 6-(6-Ethoxycarbonylhexyloxy)-3,4-dihydrocarbostyril, reference compound] |  |  | 750 to 1000 |  |  |  |  | 
22 | O=C(O)CCCCCCOc1ccc2c(c1)CCC(=O)N2 [compound 36, 6-(6-Carboxyhexyloxy)-3,4-dihydrocarbostyril, reference compound] |  |  | > 1000 |  |  |  |  | 
23 | CCOC(=O)C(C)Oc1cccc2c1NC(=O)CC2 (centres unmarked) [compound 37, 8-(1-Ethoxycarbonylethoxy)-3,4-dihydrocarbostyril, reference compound] |  |  | 900 to 1000 |  |  |  |  | 
24 | CC(=O)Oc1ccccc1C(=O)O [compound 46, Aspirin, reference compound] |  |  |  | 0 |  |  | 7 | inhibition (rabbit platelet [1]): 9%
